Reference: patent US12161726B2, “Biomimetic vesicles and uses thereof” (Ohio State Innovation Foundation, priority 2018, dated 2024)

Columns and labels:
[1] = Drug loading level (HPLC / UV-Vis); format: physicochemical; settings: drug loaded into nanoclusters
Experimental: (d). Characterizations. 1H NMR spectra of all polymer products were recorded on a Varian Mercury Plus 300 spectrometer in DMSO-d6 or CDCl3 at 25° C. Molecular weights (Mn and Mw) and polydispersity indices (PDI) of the polymers were determined by a gel permeation chrornatographer (GPC) equipped with a refractive index detector, a viscometer detector, and a light scattering detector (Viscotek, USA), DMF with 0.01 M of LiBr was used as the mobile phase with. Fourier transform infrared (FT-IR) spectra were recorded on a Bruker Tensor 27 FT-IR spectrometer. The sizes and morphologies of the NPs were studied by dynamic light scattering (DLS, ZetaSizer Nano ZS90, Malvern Instruments, USA) and transmission electron microscopy (TEM, FEI Tecnai G2 F30 TWIN 300 KV, E.A, Fischione Instruments, Inc. USA). The zeta potentials were measured by ZetaSizer Nano ZS90 (Malvern Instruments, USA). The rapamycin loading level was measured by high-performance liquid chromatography (HPLC) using ultraviolet (UV) detection at 278 nm. The JQ1 loading level was measured by UV-Vis spectrometer at 323 nm.

[2] = In vitro drug release in PBS (dialysis bag); format: physicochemical; settings: from drug-loaded biomimetic nanoclusters, PBS pH 7.4, 37° C
Experimental: The in vitro drug release profiles from both rapamycin-loaded and JQ1-loaded biomimetic nanoclusters were studied in PBS (pH=7.4) (19). Briefly, drug-loaded biomimetic nanoclusters in the PBS (1 mg/mL, 5 mL) were enclosed in a cellulose membrane dialysis bag (molecular weight cut-off, 8 kDa). The dialysis bags were immersed in 100 mL of PBS, which was then kept in a horizontal laboratory shaker (100 rpm) at 37° C. At predetermined time intervals, 5 mL samples were collected and replaced with the same volume of PBS. The amounts of rapamycin and JQ1 in the collected samples were measured by HPLC and UV-Vis spectrometer, respectively, as indicated above.

[3] = test system: neointimal hyperplasia (IH) in balloon-injured carotid arteries; experiment: Morphometric analysis of neointima after carotid artery balloon angioplasty; format: in vivo, rat; settings: two i.v. injections (day 0 and 4), 14 days after angioplasty
Experimental: Materials and Methods: Rat carotid artery balloon angioplasty. Carotid artery balloon angioplasty was performed in male Sprague-Dawley rats (Charles River; about 400 g) as previously described (5, 20). Briefly, rats were anesthetized with isoflurane (5% for inducing and 2.5% for maintaining anesthesia). A longitudinal incision was made in the neck and carotid arteries were exposed. A 2-F balloon catheter (Edwards Lifesciences, Irvine, CA) was inserted through an arteriotomy on the left external carotid artery. To produce arterial injury, the balloon was inflated at a pressure of 2 atm and withdrawn to the carotid bifurcation and this action was repeated three times. The external carotid artery was then permanently ligated, and blood flow was resumed. Drug-loaded biomimetic nanoclusters or compound solutions were injected via rat tail vein. […]
Materials and Methods: Morphometric analysis of neointima. […] Planimetric parameters as follows were measured on the sections and calculated using Image J: area inside external elastic lamina (EEL area), area inside internal elastic lamina (IEL area), lumen area, intima area (=IEL area−lumen area), and media area (=EEL area−IEL area). Intimal hyperplasia was quantified as a ratio of intima area versus media area. […] The means from all the animals in each treatment group were then averaged, and the standard error of the mean (SEM) was calculated. […]

[4] = test system: human umbilical vein ECs; settings: cited from earlier work
[5] = test system: pro-inflammatory activation of ECs and monocyte recruiting; settings: hypercholesterolemic murine model of atherosclerosis; cited from earlier work
[6] = test system: restenosis; settings: rat model, earlier study (ref 5); cited from earlier work

**Q.** With Cc1sc2c(c1C)C(c1ccc(Cl)cc1)=N[C@@H](CC(=O)OC(C)(C)C)c1nnc(C)n1-2 [JQ1] as the compound, how does the Drug loading level [1] read?
**A.** 21.5%

**Q.** And the “In vitro drug release profile” value [2]?
**A.** released in a sustainable manner without a burst release

**Q.** And the “Effect on IH (I/M ratio)” value [3]?
**A.** failed to mitigate IH

**Q.** And the “TNFα-induced pathogenic EC activation (E-selectin, VCAM1, NF-κB translocation)” value [4]?
**A.** inhibits TNFα-induced pathogenic EC activation

**Q.** And the “Pro-inflammatory activation of ECs and monocyte recruiting in vivo” value [5]?
**A.** inhibitory effects

**Q.** And the Inhibition of restenosis [6]?
**A.** effective inhibitor of restenosis
